This test deals with human VPS34 (Homo sapiens (Human), UniProt Q8NEB9). Kind of test: Human VPS34 enzyme assay (Adapta TR-FRET). The test is classed as biochemical. Particulars: for inhibition at 1.11 µM: 1 h, inhibition of VPS34 at a 1.11 μM concentration, read-out: Percent Inhibition; for IC50: human VPS34 enzyme assay, IC50 ranges. The protocol: VPS34 (accession number GB:BC033004) was cloned into pDEST20-Thombin as N-terminal GST tagged fusion proteins using the Gateway system (Invitrogen, catalog#11804-013). The sequences were verified before recombinant protein expression using the Baculovirus Expression System with Gateway® Technology. For expression VPS34 was infected at 1 MOI in SF9 cells and harvested 72 hours post infection. For purification, VPS34 is purified by Glutathione Sepharose 4 Fast Flow (GE Healthcare #17-5132-03) followed by HiTrap Q (GE Healthcare #17-1153-01). Human VPS34 Enzyme Assay Method 100 nL compounds in DMSO are added to wells of a 384 well microtitre plate (Greiner 780076). At room temperature: 5 ul VPS34 reaction buffer (Invitrogen Assay Buffer Q (diluted 1 in 5 with nanopure water) plus 2 mM DTT and 2 mM MnCl2) containing ATP (20 uM, Promega) and 200 uM PI-PS substrate (Invitrogen PV5122) is added followed immediately by 5 ul VPS34 reaction buffer (as above) containing VPS34 (5 nM, Millennium Protein Sciences Group) and the mixture is incubated with shaking at room temperature for 1 hour. Then 5 ul […]-detect mix (as per Invitrogen Adapta Assay kit (PV5009) instructions (contains kinase quench buffer, TR-FRET buffer, Adapta Eu anti-ADP antibody and Alexa Fluor 647 ADP tracer)) is added to quench the reaction. The plates are then incubated for 30 minutes at room temperature with shaking and then read on a BMG PheraStar Plus reader. For the assay methods described above, test compound percent inhibition, at various concentrations, is calculated relative to control (DMSO and EDTA) treated samples. Compound concentration versus percent inhibition curves are fitted to generate IC50 values. One skilled in the art will appreciate that the values generated either as percentage inhibition at a single concentration or IC50 values are subject to experimental variation. […] Additionally, compounds of the invention that inhibit VPS34 are described with the following IC50 ranges: […]
Sequence of human VPS34 (Q8NEB9 whole entry, the tested form may be a part): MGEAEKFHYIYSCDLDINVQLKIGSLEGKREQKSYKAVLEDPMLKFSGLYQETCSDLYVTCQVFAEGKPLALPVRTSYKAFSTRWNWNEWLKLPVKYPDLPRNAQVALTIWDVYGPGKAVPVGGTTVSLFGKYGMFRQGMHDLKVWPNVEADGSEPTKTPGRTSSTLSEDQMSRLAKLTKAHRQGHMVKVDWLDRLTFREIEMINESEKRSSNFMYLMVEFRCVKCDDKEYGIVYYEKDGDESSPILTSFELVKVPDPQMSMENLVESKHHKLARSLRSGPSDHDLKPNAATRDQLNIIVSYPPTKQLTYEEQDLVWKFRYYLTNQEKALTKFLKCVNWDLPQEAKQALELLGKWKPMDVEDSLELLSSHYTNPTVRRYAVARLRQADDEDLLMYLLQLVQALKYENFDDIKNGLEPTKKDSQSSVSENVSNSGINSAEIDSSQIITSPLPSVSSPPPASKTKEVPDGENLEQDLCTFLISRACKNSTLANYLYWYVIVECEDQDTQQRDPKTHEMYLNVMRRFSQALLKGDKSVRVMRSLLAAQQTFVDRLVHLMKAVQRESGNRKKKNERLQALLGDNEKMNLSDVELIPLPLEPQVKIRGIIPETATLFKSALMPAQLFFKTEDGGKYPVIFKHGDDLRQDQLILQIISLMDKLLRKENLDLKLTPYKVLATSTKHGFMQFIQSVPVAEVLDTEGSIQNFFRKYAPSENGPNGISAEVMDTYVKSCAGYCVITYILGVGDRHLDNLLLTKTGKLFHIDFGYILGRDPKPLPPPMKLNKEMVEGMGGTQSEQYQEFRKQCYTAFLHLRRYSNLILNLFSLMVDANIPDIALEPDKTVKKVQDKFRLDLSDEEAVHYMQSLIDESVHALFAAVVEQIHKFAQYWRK
On the technique in general: Time-resolved FRET reads energy transfer from a long-lived donor to a nearby acceptor.

The record followed here is patent publication US10202373B2, “Heteroaryls and uses thereof” (MILLENNIUM PHARMACEUTICALS, INC., priority 2014, dated 2019).

Regarding `CC(=O)Nc1cc(-c2cnc(C)c3c2ccn3S(=O)(=O)C2CC2)ccn1` [Compound I-44, N-{4-[1-(cyclopropylsulfonyl)-7-methyl-1H-pyrrolo[2,3-c]pyridin-4-yl]pyridin-2-yl}acetamide], the inhibition at 1.11 µM was more than 99% and the IC50 fell in the range of 10 to 50 nM.
For `CC(=O)Nc1cc(-c2cnc(C)c3c2ccn3S(C)(=O)=O)ccn1` [Compound I-45, N-{4-[7-methyl-1-(methylsulfonyl)-1H-pyrrolo[2,3-c]pyridin-4-yl]pyridin-2-yl}acetamide], in that order: more than 99% and 10 to 50 nM.
In the same order, the values of `CC(=O)Nc1cc(-c2cnc(C)c3c2c(F)cn3S(C)(=O)=O)ccn1` [Compound I-46, N-{4-[3-fluoro-7-methyl-1-(methylsulfonyl)-1H-pyrrolo[2,3-c]pyridin-4-yl]pyridin-2-yl}acetamide] are more than 99% and 10 to 50 nM.
For `CCOC(=O)Nc1cc(-c2cnc(C)c3c2ccn3S(=O)(=O)c2ccccc2)ccn1` [Compound I-47, ethyl {4-[7-methyl-1-(phenylsulfonyl)-1H-pyrrolo[2,3-c]pyridin-4-yl]pyridin-2-yl}carbamate], in that order: more than 99% and 10 to 50 nM.
As to `Cc1ncc(-c2ccnc(NC(=O)CO)c2)c2ccn(S(=O)(=O)C3CC3)c12` [Compound I-48, N-{4-[1-(cyclopropylsulfonyl)-7-methyl-1H-pyrrolo[2,3-c]pyridin-4-yl]pyridin-2-yl}-2-hydroxyacetamide], the inhibition at 1.11 µM was more than 99% and the IC50 fell in the range of 10 to 50 nM.
In the same order, the values of `O=S(=O)(C1CC1)n1ccc2c(-c3ccnc(Nc4ccncn4)c3)cncc21` [Compound I-49, N-{4-[1-(cyclopropylsulfonyl)-1H-pyrrolo[2,3-c]pyridin-4-yl]pyridin-2-yl}pyrimidin-4-amine] are 88% and 10 to 50 nM.
For `c1cc(Nc2cc(-c3cncc4[nH]ccc34)ccn2)ncn1` [Compound I-50, N-[4-(1H-pyrrolo[2,3-c]pyridin-4-yl)pyridin-2-yl]pyrimidin-4-amine], in that order: 82% and 10 to 50 nM.
With `Cc1nccc(Nc2cc(-c3cnc(C)c4[nH]ccc34)ccn2)n1` [Compound I-51, 2-methyl-N-[4-(7-methyl-1H-pyrrolo[2,3-c]pyridin-4-yl)pyridin-2-yl]pyrimidin-4-amine], the inhibition at 1.11 µM is 91% and the IC50 lay within 10 to 50 nM.

Broadly, the inhibition is the percentage by which the read-out fell short of the control. Usually IC50 stands for the concentration at which inhibition is half-maximal. A higher IC50 goes with lower potency.
